The record followed here is publication PMC5742831, “Inhibitors of Serine Proteases from a Microcystis sp. Bloom Material Collected from Timurim Reservoir, Israel” (Marine Drugs, 2017).

One data set has as its target chymotrypsin (Bos taurus, UniProt P00766). Briefly: Protease inhibition assay, chymotrypsin. It is filed as biochemical. Conditions: substrate SGGPNA; Tris buffer pH 7.5; 37 °C; 5 min pre-incubation; kinetic absorbance 405 nm over 30 min; dilutions 0.011 µM to 45.5 µM; 4-parameter logistic fit. How it is done: A sigmoidal curve of the enzyme inhibition versus the concentration of the inhibitor was observed that was fit to the 4-parameters logistic model. Assays were performed in 96-well plate format.
The assay was performed in a Tris buffer (0.6 g TRIS HCl/100 mL H2O, pH 7.5). The enzyme and the substrate Suc-Gly-Gly-phenylalanine-p-nitroanilide (SGGPNA) were dissolved in the buffer at concentrations of 1 mg/mL. To each well were added 100 µL of buffer, 10 µL of enzyme, and 10 µL of sample. The plate was placed in the spectrophotometer at 37 °C. After 5 min, 100 µL of substrate solution was added to each well, and the plate was placed in the spectrophotometer for the kinetic measurement of the absorbance intensity over 30 min at a wavelength of 405 nm.

For data set [1] the following is noted: HPLC mobile phase 0.1% TFA/MeCN, six degradation products from TFA catalyzed hydrolysis of the glutamine and Ahp residues, confirmed by LC-MS of the crude extract.

pIC50: −log10 of the molar value.

As a reminder, the pIC50 is −log10 of the IC50, conventionally taken in molar units. Higher therefore signals a small IC50. Regarding `CC(C)C[C@H]1C(=O)N(C)[C@@H](Cc2ccc(O)cc2)C(=O)N[C@@H](C(C)C)C(=O)O[C@H](C)[C@H](NC(=O)[C@H](Cc2ccc(O)cc2)NC(=O)[C@@H](O)Cc2ccc(O)cc2)C(=O)N[C@@H](CCC(N)=O)C(=O)N[C@H]2CC[C@@H](O)N1C2=O` [Micropeptin TR1058 (1)], on chymotrypsin, the pIC50 is 5.17. Also, the “Stability under the isolation conditions” value in data set [1] is recorded as “extremely unstable”.
